Test [1] has as its target T1, Solute carrier family 15 member 1 (Homo sapiens, UniProt P46059).
T1 sequence (P46059 whole entry): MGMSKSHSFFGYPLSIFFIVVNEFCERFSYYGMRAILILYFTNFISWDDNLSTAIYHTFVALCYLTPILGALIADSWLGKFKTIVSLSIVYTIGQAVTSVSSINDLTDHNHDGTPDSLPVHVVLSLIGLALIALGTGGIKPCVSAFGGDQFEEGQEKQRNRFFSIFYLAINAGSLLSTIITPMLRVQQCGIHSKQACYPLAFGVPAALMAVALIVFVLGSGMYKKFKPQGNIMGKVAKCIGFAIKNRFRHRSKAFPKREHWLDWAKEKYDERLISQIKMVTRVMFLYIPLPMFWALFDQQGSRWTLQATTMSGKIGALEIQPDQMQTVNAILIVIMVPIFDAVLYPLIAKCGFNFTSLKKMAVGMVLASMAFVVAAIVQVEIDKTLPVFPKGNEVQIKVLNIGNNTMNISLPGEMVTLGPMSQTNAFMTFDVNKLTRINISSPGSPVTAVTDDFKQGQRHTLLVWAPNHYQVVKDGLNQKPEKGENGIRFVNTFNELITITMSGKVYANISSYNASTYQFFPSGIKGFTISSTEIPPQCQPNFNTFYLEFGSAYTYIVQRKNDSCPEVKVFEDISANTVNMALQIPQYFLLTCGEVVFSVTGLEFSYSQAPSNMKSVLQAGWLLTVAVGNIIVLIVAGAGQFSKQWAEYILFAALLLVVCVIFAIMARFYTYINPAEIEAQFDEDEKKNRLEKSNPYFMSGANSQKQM
Kind of test: (§1) Binding affinity to PEPT1 in human Caco2 cells assessed as inhibition of [14C]Gly-Sar apical uptake after 5 mins by liquid scintillation counting. The test is classed as cell-based, Caco-2.

Test [2] concerns the target T2, Solute carrier family 15 member 1 (Homo sapiens) (UniProt P46059).
T2 sequence (whole entry): T1 sequence (P46059 whole entry)
Described as §1. The test is classed as cell-based. As to conditions: Caco-2.

One may read the Ki as a dissociation constant, usually derived from enzyme kinetics or from competition with a known ligand.

Non-standard residues stand in square brackets, D forms with d. Residues, ends and D or L forms follow the SMILES beside them. *: point of attachment. 1Nal = N[C@@H](Cc1cccc2ccccc12)C(=O)O; Chg = N[C@H](C(=O)O)C1CCCCC1; Nva = CCC[C@H](N)C(=O)O; Bz = O=C(c1ccccc1)*

For `C[C@H](NC(=O)[C@H](COC(=O)c1ccccc1)CC(=O)[C@@H](N)Cc1ccccc1)C(=O)O`, the inhibition constant (Ki) in test [1] is 324 µM. Besides, the inhibition entry in test [2] was “Dose-dependent effect”. On the same counts, the results for `CCC[C@H](NC(=O)[C@H](COC(=O)c1ccccc1)CC(=O)[C@@H](N)Cc1ccccc1)C(=O)O` are 251 µM and “Dose-dependent effect”. On to `N[C@@H](Cc1ccccc1)C(=O)C[C@@H](COC(=O)c1ccccc1)C(=O)N[C@H](C(=O)O)C1CCCCC1`, for which, in test [2], the inhibition result is “Dose-dependent effect”.

In the case of `N[C@@H](Cc1ccccc1)C(=O)N[C@@H](COC(=O)c1ccccc1)C(=O)N[C@@H](Cc1cccc2ccccc12)C(=O)O` (H-Phe-Ser(Bz)-[1Nal]-OH), the inhibition result in test [2] was “Dose-dependent effect”. The same measure, in the same setting: with `N[C@@H](Cc1ccccc1)C(=O)N[C@@H](COC(=O)c1ccccc1)C(=O)N[C@H](C(=O)O)C1CCCCC1` (H-Phe-Ser(Bz)-[Chg]-OH) the entry was “Dose-dependent effect”; with `CCC[C@H](NC(=O)[C@H](COC(=O)c1ccccc1)NC(=O)[C@@H](N)Cc1ccccc1)C(=O)O` (H-Phe-Ser(Bz)-[Nva]-OH), “Dose-dependent effect”. Consider `C[C@H](NC(=O)[C@H](CO)NC(=O)[C@@H](N)Cc1ccccc1)C(=O)O` (H-Phe-Ser-Ala-OH), for which, in test [1], the Ki was 257 µM. Moreover, the inhibition entry in test [2] is “Dose-dependent effect”.
